From patent publication US20200339511A1, “Substituted indoline derivatives as dengue viral replication inhibitors” (priority 2016, published 2020)
Where two headings read alike, the source gives them in different places.

Assays:
[1] = system: DENV-2 16681 strain; assay: DENV-2 antiviral assay (eGFP-labeled virus in Vero cells); assay type: cell-based, Dengue virus; settings: DENV-2 16681 eGFP, MOI 0.5, 3 days
Description: The antiviral activity of all the compounds of the invention was tested the against DENV-2 16681 strain which was labeled with enhanced green fluorescent protein (eGPF). The culture medium consists of minimal essential medium supplemented with 2% of heat-inactivated fetal calf serum, 0.04% gentamycin (50 mg/mL) and 2 mM of L-glutamine. Vero cells, obtained from ECACC, were suspended in culture medium and 25 μL was added to 384-well plates (2500 cells/well), which already contain the antiviral compounds. Typically, these plates contain a 5-fold serial dilution of 9 dilution steps of the test compound at 200 times the final concentration in 100% DMSO (200 nL). […] Finally, each plate contains wells which are assigned as virus controls (containing cells and virus in the absence of compound), cell controls (containing cells in the absence of virus and compound) and medium controls (containing medium in the absence of cells, virus and compounds). To the wells assigned as medium control, 25 μL of culture medium was added instead of Vero cells. Once the cells were added to the plates, the plates were incubated for 30 minutes at room temperature to allow the cells to distribute evenly within the wells. Next, the plates were incubated in a fully humidified incubator (37° C., 5% CO2) until the next day. Then, DENV-2 strain 16681, labeled with eGFP, was added at a multiplicity of infection (MOI) of 0.5. Therefore, 15 μL of virus suspension was added to all the wells containing test compound and to the wells assigned as virus control. In parallel, 15 μL of culture medium was added to the medium and cell controls. Next, the plates were incubated for 3 days in a fully humidified incubator (37° C., 5% CO2). At the day of the read out, the eGFP fluorescence was measured using an automated fluorescence microscope at 488 nm (blue laser). Using an in-house LIMS system, inhibition dose response curves for each compound were calculated and the half maximal effective concentration (EC50) was determined. Therefore, the percent inhibition (I) for every test concentration is calculated using the following formula: I=100*(ST-SCC)/(SVC-SCC), ST, SCC and SVC are the amount of eGFP signal in the test compound, cell control and virus control wells, respectively. The EC50 represents the concentration of a compound at which the virus replication is inhibited with 50%, as measured by a 50% reduction of the eGFP fluorescent intensity compared to the virus control. The EC50 is calculated using linear interpolation (Table 1).

[2] = in vitro; settings: African green monkey
[3] = system: DENV-1 strain TC974#666; assay: Tetravalent RT-qPCR assay, serotype 1; assay type: cell-based, Dengue virus; settings: RT-qPCR serotype 1 TC974#666, Protocol A, Vero cells, day 3
Description: (§1) Tetravalent reverse transcriptase quantitative-PCR (RT-qPCR) assay The antiviral activity of the compounds of the invention was tested against DENV-1 strain TC974#666 (NCPV), DENV-2 strain 16681, DENV-3 strain H87 (NCPV) and DENV-4 strain H241 (NCPV) in a RT-qPCR assay. Therefore, Vero cells were infected with either DENV-1, or -2, or -3, or -4 in the presence or absence of test compounds. At day 3 post-infection, the cells were lysed and cell lysates were used to prepare cDNA of both a viral target (the 3′UTR of DENV; Table 2) and a cellular reference gene (β-actin, Table 2). Subsequently, a duplex real time PCR was performed on a Lightcycler480 instrument. The generated Cp value is inversely proportional to the amount of RNA expression of these targets. Inhibition of DENV replication by a test compound results in a shift of Cp's for the 3′UTR gene. On the other hand, if a test compound is toxic to the cells, a similar effect on β-actin expression will be observed. The comparative ΔΔCp method is used to calculate EC50, which is based on the relative gene expression of the target gene (3′UTR) normalized with the cellular housekeeping gene (β-actin). In addition, CC50 values are determined based on the Cp values acquired for the housekeeping gene β-actin.
(§2) The culture medium consisted of minimal essential medium supplemented with 2% of heat-inactivated fetal calf serum, 0.04% gentamycin (50mg/mL) and 2 mM of L-glutamine. Vero cells, obtained from ECACC, were suspended in culture medium and 75 μL/well was added in 96-well plates (10000 cells/well), which already contain the antiviral compounds. […] In addition, each plate contains wells which are assigned as virus controls (containing cells and virus in the absence of compound) and cell controls (containing cells in the absence of virus and compound). Once the cells were added in the plates, the plates were incubated in a fully humidified incubator (37° C., 5% CO2) until the next day. Dengue viruses serotype-1, 2, 3 and 4 were diluted in order to obtain a Cp of ˜22-24 in the assay. Therefore, 25 μL of virus suspension was added to all the wells containing test compound and to the wells assigned as virus control. In parallel, 25 μL of culture medium was added to the cell controls. Next, the plates were incubated for 3 days in a fully humidified incubator (37° C., 5% CO2). After 3 days, the supernatant was removed from the wells and the cells were washed twice with ice-cold PBS (˜100 μL). The cell pellets within the 96-well plates were stored at −80° C. for at least 1 day. Next, RNA was extracted using the Cells-to-CT™ lysis kit, according to the manufacturer's guideline (Life Technologies). The cell lysates can be stored at −80° C. or immediately used in the reverse transcription step.
(§3) In preparation of the reverse transcription step, mix A (table 3A) was prepared and 7.57 μL/well was dispensed in a 96-well plate. After addition of 5 μL of the cell lysates, a five minute denaturation step at 75° C. was performed (table 3B). Afterwards, 7.43 μL of mix B was added (table 3C) and the reverse transcription step was initiated (table 3D) to generate cDNA.
(§4) Finally, a RT-qPCR mix was prepared, mix C (table 4A), and 22.02 μL/well was dispensed in 96-well LightCycler qPCR plates to which 3μL of cDNA was added and the qPCR was performed according to the conditions in table 4B on a LightCycler 480.
(§5) Using the LightCycler software and an in-house LIMS system, dose response curves for each compound were calculated and the half maximal effective concentration (EC50) and the half maximal cytotoxic concentration (CC50) were determined (Tables 5-8).

[4] = system: DENV-2 strain 16681; assay: Tetravalent RT-qPCR assay, serotype 2; assay type: cell-based, Dengue virus; settings: RT-qPCR serotype 2 16681, Protocol A, Vero cells, day 3
Description: as §1, §2, §3, §4, §5

[5] = system: DENV-3 strain H87; assay: Tetravalent RT-qPCR assay, serotype 3; assay type: cell-based, Dengue virus; settings: RT-qPCR serotype 3 H87, Protocol A, Vero cells, day 3
Description: as §1, §2, §3, §4, §5

[6] = system: DENV-4 strain H241; assay: Tetravalent RT-qPCR assay, serotype 4; assay type: cell-based, Dengue virus; settings: RT-qPCR serotype 4 H241, Protocol A, Vero cells, day 3, read-out: EC50
Description: as §1, §2, §3, §4, §5

[7] = system: Vero cells; settings: African green monkey
[8] = Dengue virus, DENV2, Vero, 72 h
[9] = Dengue virus, DENV1, Vero, 72 h
[10] = Dengue virus, DENV3, Vero, 72 h
[11] = Dengue virus, DENV4, Vero, 72 h

Row | Structure (SMILES) | EC50 [1, 8] [µM] | melting point [°C] | CC50 [2] [µM] | EC50 [1] [µM] | EC50 [3, 9] [µM] | EC50 [4, 8] [µM] | EC50 [5, 10] [µM] | EC50 [6, 11] [µM] | CC50 [7] [µM] | EC50 [3] [µM] | EC50 [4] [µM] | EC50 [5] [µM] | EC50 [6] [µM]
1 | COc1cc(NC(C(=O)N2CCc3ccc(C(F)(F)F)cc32)c2ccc(Cl)cc2)cc(OCCO)c1 (racemic) [Compound 4, 2-(4-chlorophenyl)-2-((3-(2-hydroxyethoxy)-5-methoxyphenyl)amino)-1-(6-(trifluoromethyl)indolin-1-yl)ethanone] | 0.0067 | 160 | 9.7 | – | – | – | – | – | – | – | – | – | –
2 | COc1cc(NC(C(=O)N2CCc3ccc(OC(F)(F)F)cc32)c2ccc(Cl)cc2)cc(OCCO)c1 (single isomer, unassigned) [Compound 3A, 2-(4-chlorophenyl)-2-((3-(2-hydroxyethoxy)-5-methoxyphenyl)amino)-1-(6-(trifluoromethoxy)indolin-1-yl)ethanone] | – | – | 9.6 | 0.0023 | 0.0036 | 0.0022 | 0.029 | 0.19 | – | – | – | – | –
3 | COc1cc(NC(C(=O)N2CCc3ccc(C(F)(F)F)cc32)c2ccc(Cl)cc2OC)cc(OCCO)c1 (single isomer, unassigned) [Compound 1B, 2-(4-chloro-2-methoxyphenyl)-2-((3-(2-hydroxyethoxy)-5-methoxyphenyl)amino)-1-(6-(trifluoromethyl)indolin-1-yl)ethanone] | – | – | – | 0.0036 | 0.0044 | 0.0036 | 0.056 | 0.25 | 12 | – | – | – | –
4 | COc1cc(NC(C(=O)N2CCc3cc(F)c(C(F)(F)F)cc32)c2ccc(Cl)cc2)cc(OCCO)c1 (single isomer, unassigned) [Compound 12A, 2-(4-chlorophenyl)-1-(5-fluoro-6-(trifluoromethyl)indolin-1-yl)-2-((3-(2-hydroxyethoxy)-5-methoxyphenyl)amino)ethanone] | – | – | 12 | 0.0023 | 0.0033 | 0.0044 | 0.04 | 0.24 | – | – | – | – | –
5 | COc1cc(NC(C(=O)N2CCc3cc(OC)c(C(F)(F)F)cc32)c2ccc(Cl)cc2F)cc(OCCO)c1 (single isomer, unassigned) [Compound 8B, 2-(4-chloro-2-fluorophenyl)-2-((3-(2-hydroxyethoxy)-5-methoxyphenyl)amino)-1-(5-methoxy-6-(trifluoromethyl)indolin-1-yl)ethanone] | – | – | – | 0.0019 | 0.0081 | 0.0023 | 0.05 | 0.12 | ≥ 76 | – | – | – | –
6 | COc1cc(NC(C(=O)N2CCc3c(C)cc(OC(F)(F)F)cc32)c2ccc(Cl)cc2)cc(OCCO)c1 (single isomer, unassigned) [Compound 9B, 2-(4-chlorophenyl)-2-((3-(2-hydroxyethoxy)-5-methoxy-phenyl)amino)-1-(4-methyl-6-(trifluoromethoxy)indolin-1-yl)ethanone] | – | – | – | 0.0014 | 0.0027 | 0.0012 | 0.016 | 0.11 | 11 | – | – | – | –
7 | COc1cc(NC(C(=O)N2CCc3ccc(C(F)(F)F)cc32)c2ccc(Cl)cc2)cc(OCCO)c1 (single isomer, unassigned) [Compound 4A, 2-(4-chlorophenyl)-2-((3-(2-hydroxyethoxy)-5-methoxyphenyl)amino)-1-(6-(trifluoromethyl)indolin-1-yl)ethanone] | – | – | 12 | 0.0036 | – | – | – | – | – | 0.0039 | 0.0043 | 0.027 | 0.21
8 | COc1cc(NC(C(=O)N2CCc3cc(OC)c(C(F)(F)F)cc32)c2ccc(Cl)cc2OC)cc(OCCO)c1 (single isomer, unassigned) [Compound 11B, 2-(4-chloro-2-methoxyphenyl)-2-((3-(2-hydroxyethoxy)-5-methoxyphenyl)amino)-1-(5-methoxy-6-(trifluoromethyl)indolin-1-yl)ethanone] | – | – | – | 0.0016 | 0.0078 | 0.002 | 0.034 | 0.28 | > 25 | – | – | – | –
9 | COc1cc(NC(C(=O)N2CCc3c(C)cc(C(F)(F)F)cc32)c2ccc(Cl)cc2)cc(OCCO)c1 (single isomer, unassigned) [Compound 10B, 2-(4-chlorophenyl)-2-((3-(2-hydroxyethoxy)-5-methoxy-phenyl)amino)-1-(4-methyl-6-(trifluoromethyl)indolin-1-yl)ethanone] | – | – | – | 0.0022 | 0.0017 | 0.0023 | 0.016 | 0.16 | 11 | – | – | – | –
10 | COc1cc(NC(C(=O)N2CCc3ccc(C(F)(F)F)cc32)c2ccc(Cl)cc2)cc(OCCO)c1 (single isomer, unassigned) [Compound 4B, 2-(4-chlorophenyl)-2-((3-(2-hydroxyethoxy)-5-methoxyphenyl)amino)-1-(6-(trifluoromethyl)indolin-1-yl)ethanone] | – | – | – | 1.1 | – | – | – | – | 14 | 0.7 | 1 | > 1.9 | > 2.5
